Values quoted from earlier work as cited in patent US20160354391A1, “USE IN SINGLE PILL/TABLET/CAPSULE OF MINOCYCLINE, FLUCONAZOLE AND ATORVASTATIN IN THE TREATMENT OF MULTIPLE SCLEROSIS” (priority 2014, published 2016).

Columns and labels:
[1] = in vivo

elimination time [1]	Compound	patients who develop thyroid autoimmune diseases
up to 2 years	C/C(O)=C(\C#N)C(=O)Nc1ccc(C(F)(F)F)cc1 [Teriflunomide]	
	Alemtuzumab	approximately 40%
